Patent US20090181898A1, “ABUSE-RESISTANT A[…]” (SHIRE LLC, priority 2002, published 2009)
Marks after values point to notes of the source that are not given here.

Experiments:
stimulant abusers = assay: Abuse liability of intravenous L-lysine-d-amphetamine in stimulant abusers; details: d-amphetamine 20 mg
anesthetized dog = assay: Cardiovascular effects following intravenous injection in the anesthetized dog
rats [1] = assay: Locomotor activity after intravenous administration; assay type: in vivo, Sprague-Dawley rats; details: rat, 1.0 mg/kg
rats [2] = assay: Locomotor activity after intranasal administration with and without CMC; assay type: in vivo, Sprague-Dawley rats; details: rats, intranasal 1.0 mg/kg, 1 h
Description: The CMC drug mixtures were suspended thoroughly before each dose was delivered.

[3] = Oral bioavailability at escalating doses (LC/MS/MS); details: rat; for AUC0-8 of d-amphetamine / AUCinf of d-amphetamine / F of d-amphetamine / Tmax of d-amphetamine / Cmax of d-amphetamine / AUCinf alt. calc. of d-amphetamine: oral; for Cmax of d-amphetamine: LC/MS/MS; for AUCinf alt. calc. of d-amphetamine: WinNonlin, in ng·h/mL
rats [4] = assay: Horizontal locomotor activity after oral administration; assay type: in vivo, Sprague-Dawley rats; set-up: Time of Peak (Counts per 0.2 h): unit not given here; details: rats, oral gavage 6 mg/kg
[5] = Intranasal bioavailability (LC/MS/MS); details: rat, intranasal, 3 mg/kg
[6] = IV, L-lysine-d-amphetamine 50 mg

**Q.** Which results are given for d-amphetamine?
**A.** Time of mean peak plasma level of d-amphetamine (stimulant abusers; IV): 5 min; Time of mean peak responses (stimulant abusers; IV): 15 min; Mean maximum response on Subject Liking VAS vs placebo (stimulant abusers; [6]): significantly greater than placebo; Subjects (of 9) who would take the treatment again (stimulant abusers; [6]): Six; Mean peak plasma level of d-amphetamine (stimulant abusers; stimulant abusers, IV over 2 minutes, L-lysine-d-amphetamine 50 mg): 77.7 ng/mL; DAP % Change (anesthetized dog; iv 0.202 mg/kg, Time 0): 0%; LVP % Change (anesthetized dog; iv 0.202 mg/kg, Time 0): 0%; MAP % Change (anesthetized dog; iv 0.202 mg/kg, Time 0): 0%; MAP mean arterial pressure (anesthetized dog; iv 0.202 mg/kg, Time 0): 84 mmHg; SAP % Change (anesthetized dog; iv 0.202 mg/kg, Time 0): 0%; SAP systolic arterial pressure (anesthetized dog; iv 0.202 mg/kg, Time 0): 111 mmHg; DAP % Change (anesthetized dog; iv 0.202 mg/kg, Time 5): 117%; LVP % Change (anesthetized dog; iv 0.202 mg/kg, Time 5): 107%; MAP % Change (anesthetized dog; iv 0.202 mg/kg, Time 5): 109%; MAP mean arterial pressure (anesthetized dog; iv 0.202 mg/kg, Time 5): 176 mmHg; SAP % Change (anesthetized dog; iv 0.202 mg/kg, Time 5): 97%; SAP systolic arterial pressure (anesthetized dog; iv 0.202 mg/kg, Time 5): 218 mmHg; DAP % Change (anesthetized dog; iv 0.202 mg/kg, Time 15): 45%; LVP % Change (anesthetized dog; iv 0.202 mg/kg, Time 15): 52%; MAP % Change (anesthetized dog; iv 0.202 mg/kg, Time 15): 49%; MAP mean arterial pressure (anesthetized dog; iv 0.202 mg/kg, Time 15): 125 mmHg; SAP % Change (anesthetized dog; iv 0.202 mg/kg, Time 15): 52%; SAP systolic arterial pressure (anesthetized dog; iv 0.202 mg/kg, Time 15): 168 mmHg; DAP % Change (anesthetized dog; iv 0.202 mg/kg, Time 25): 30%; LVP % Change (anesthetized dog; iv 0.202 mg/kg, Time 25): 37%; MAP % Change (anesthetized dog; iv 0.202 mg/kg, Time 25): 31%; MAP mean arterial pressure (anesthetized dog; iv 0.202 mg/kg, Time 25): 110 mmHg; SAP % Change (anesthetized dog; iv 0.202 mg/kg, Time 25): 34%; SAP systolic arterial pressure (anesthetized dog; iv 0.202 mg/kg, Time 25): 148 mmHg; DAP % Change (anesthetized dog; iv 0.202 mg/kg, Time 30): 20%; LVP % Change (anesthetized dog; iv 0.202 mg/kg, Time 30): 30%; MAP % Change (anesthetized dog; iv 0.202 mg/kg, Time 30): 23%; MAP mean arterial pressure (anesthetized dog; iv 0.202 mg/kg, Time 30): 103 mmHg; SAP % Change (anesthetized dog; iv 0.202 mg/kg, Time 30): 26%; SAP systolic arterial pressure (anesthetized dog; iv 0.202 mg/kg, Time 30): 140 mmHg; DAP % Change (anesthetized dog; iv 0.404 mg/kg, Time 0): 0%; LVP % Change (anesthetized dog; iv 0.404 mg/kg, Time 0): 0%; MAP % Change (anesthetized dog; iv 0.404 mg/kg, Time 0): 0%; MAP mean arterial pressure (anesthetized dog; iv 0.404 mg/kg, Time 0): 101 mmHg; SAP % Change (anesthetized dog; iv 0.404 mg/kg, Time 0): 0%; SAP systolic arterial pressure (anesthetized dog; iv 0.404 mg/kg, Time 0): 139 mmHg; DAP % Change (anesthetized dog; iv 0.404 mg/kg, Time 5): 88%; LVP % Change (anesthetized dog; iv 0.404 mg/kg, Time 5): 79%; MAP % Change (anesthetized dog; iv 0.404 mg/kg, Time 5): 85%; MAP mean arterial pressure (anesthetized dog; iv 0.404 mg/kg, Time 5): 187 mmHg; SAP % Change (anesthetized dog; iv 0.404 mg/kg, Time 5): 73%; SAP systolic arterial pressure (anesthetized dog; iv 0.404 mg/kg, Time 5): 240 mmHg; DAP % Change (anesthetized dog; iv 0.404 mg/kg, Time 15): 44%; LVP % Change (anesthetized dog; iv 0.404 mg/kg, Time 15): 43%; MAP % Change (anesthetized dog; iv 0.404 mg/kg, Time 15): 43%; MAP mean arterial pressure (anesthetized dog; iv 0.404 mg/kg, Time 15): 145 mmHg; SAP % Change (anesthetized dog; iv 0.404 mg/kg, Time 15): 39%; SAP systolic arterial pressure (anesthetized dog; iv 0.404 mg/kg, Time 15): 193 mmHg; DAP % Change (anesthetized dog; iv 0.404 mg/kg, Time 25): 17%; LVP % Change (anesthetized dog; iv 0.404 mg/kg, Time 25): 26%; MAP % Change (anesthetized dog; iv 0.404 mg/kg, Time 25): 20%; MAP mean arterial pressure (anesthetized dog; iv 0.404 mg/kg, Time 25): 122 mmHg; SAP % Change (anesthetized dog; iv 0.404 mg/kg, Time 25): 19%; SAP systolic arterial pressure (anesthetized dog; iv 0.404 mg/kg, Time 25): 166 mmHg; DAP % Change (anesthetized dog; iv 0.404 mg/kg, Time 30): 11%; LVP % Change (anesthetized dog; iv 0.404 mg/kg, Time 30): 22%; MAP % Change (anesthetized dog; iv 0.404 mg/kg, Time 30): 16%; MAP mean arterial pressure (anesthetized dog; iv 0.404 mg/kg, Time 30): 117 mmHg; SAP % Change (anesthetized dog; iv 0.404 mg/kg, Time 30): 16%; SAP systolic arterial pressure (anesthetized dog; iv 0.404 mg/kg, Time 30): 160 mmHg; DAP % Change (anesthetized dog; iv 2.02 mg/kg, Time 0): 0%; LVP % Change (anesthetized dog; iv 2.02 mg/kg, Time 0): 0%; MAP % Change (anesthetized dog; iv 2.02 mg/kg, Time 0): 0%; MAP mean arterial pressure (anesthetized dog; iv 2.02 mg/kg, Time 0): 115 mmHg; SAP % Change (anesthetized dog; iv 2.02 mg/kg, Time 0): 0%; SAP systolic arterial pressure (anesthetized dog; iv 2.02 mg/kg, Time 0): 158 mmHg; DAP % Change (anesthetized dog; iv 2.02 mg/kg, Time 5): 48%; LVP % Change (anesthetized dog; iv 2.02 mg/kg, Time 5): 40%; MAP % Change (anesthetized dog; iv 2.02 mg/kg, Time 5): 47%; MAP mean arterial pressure (anesthetized dog; iv 2.02 mg/kg, Time 5): 169 mmHg; SAP % Change (anesthetized dog; iv 2.02 mg/kg, Time 5): 44%; SAP systolic arterial pressure (anesthetized dog; iv 2.02 mg/kg, Time 5): 228 mmHg; DAP % Change (anesthetized dog; iv 2.02 mg/kg, Time 15): 23%; LVP % Change (anesthetized dog; iv 2.02 mg/kg, Time 15): 24%; MAP % Change (anesthetized dog; iv 2.02 mg/kg, Time 15): 23%; MAP mean arterial pressure (anesthetized dog; iv 2.02 mg/kg, Time 15): 142 mmHg; SAP % Change (anesthetized dog; iv 2.02 mg/kg, Time 15): 24%; SAP systolic arterial pressure (anesthetized dog; iv 2.02 mg/kg, Time 15): 196 mmHg; DAP % Change (anesthetized dog; iv 2.02 mg/kg, Time 25): 17%; LVP % Change (anesthetized dog; iv 2.02 mg/kg, Time 25): 19%; MAP % Change (anesthetized dog; iv 2.02 mg/kg, Time 25): 17%; MAP mean arterial pressure (anesthetized dog; iv 2.02 mg/kg, Time 25): 135 mmHg; SAP % Change (anesthetized dog; iv 2.02 mg/kg, Time 25): 20%; SAP systolic arterial pressure (anesthetized dog; iv 2.02 mg/kg, Time 25): 189 mmHg; DAP % Change (anesthetized dog; iv 2.02 mg/kg, Time 30): 13%; LVP % Change (anesthetized dog; iv 2.02 mg/kg, Time 30): 16%; MAP % Change (anesthetized dog; iv 2.02 mg/kg, Time 30): 12%; MAP mean arterial pressure (anesthetized dog; iv 2.02 mg/kg, Time 30): 129 mmHg; SAP % Change (anesthetized dog; iv 2.02 mg/kg, Time 30): 16%; SAP systolic arterial pressure (anesthetized dog; iv 2.02 mg/kg, Time 30): 183 mmHg; Total Activity Counts (3 h) (rats [1]): 1659; Activity above baseline, Percent Amp (rats [1]; 3 h): 100%; Total Activity Counts Above Baseline (rats [1]; 3 h): 1355; Total Activity Counts (1 h) (rats [2]): 858; Total Activity Counts Above Baseline (rats [2]): 686; AUC (0-1.5) of d-amphetamine ([3]; in vivo, po, 60 mg/kg): 14,281** ng · h/mL; AUC0-8 of d-amphetamine ([3]; 3 mg/kg): 885 ng·h/mL; AUCinf of d-amphetamine ([3]; 3 mg/kg): 921 ng·h/mL; F of d-amphetamine ([3]; 3 mg/kg): 84%; Tmax of d-amphetamine ([3]; 3 mg/kg): 90 min; Cmax of d-amphetamine ([3]; 3 mg/kg): 217.2 ng/mL; AUCinf alt. calc. of d-amphetamine ([3]; 3 mg/kg): 1,059; AUC0-8 of d-amphetamine ([3]; 6 mg/kg): 1,319 ng · h/mL; AUCinf of d-amphetamine ([3]; 6 mg/kg): 1,362 ng · h/mL; F of d-amphetamine ([3]; 6 mg/kg): 62%; Tmax of d-amphetamine ([3]; 6 mg/kg): 15 min; Cmax of d-amphetamine ([3]; 6 mg/kg): 815.3 ng/mL; AUCinf alt. calc. of d-amphetamine ([3]; 6 mg/kg): 1429; AUC0-8 of d-amphetamine ([3]; 12 mg/kg): 4,252 ng · h/mL; AUCinf of d-amphetamine ([3]; 12 mg/kg): 4,428 ng · h/mL; F of d-amphetamine ([3]; 12 mg/kg): 101%; Tmax of d-amphetamine ([3]; 12 mg/kg): 15 min; Cmax of d-amphetamine ([3]; 12 mg/kg): 1,533.1 ng/mL; AUCinf alt. calc. of d-amphetamine ([3]; 12 mg/kg): 4,636; AUCinf of d-amphetamine ([3]; 60 mg/kg): 48,707 ng · h/mL; F of d-amphetamine ([3]; 60 mg/kg): 223%; Tmax of d-amphetamine ([3]; 60 mg/kg): 60 min; Cmax of d-amphetamine ([3]; 60 mg/kg): 13,735 ng/mL; AUCinf alt. calc. of d-amphetamine ([3]; 60 mg/kg): 48,707; Tmax of d-amphetamine ([3]; […]): 30 min; Peak of activity (Counts per 0.2 h) (rats [4]; 5 h experiment): 291 Counts per 0.2 h; Time of Last Count Above 200 per 0.2 h (rats [4]; 5 h experiment): 2.6 h; Time of Peak (Counts per 0.2 h) (rats [4]; 5 h experiment): 0.6; Total Activity Counts (rats [4]; 5 h experiment): 515; Total Activity Counts Above Baseline (rats [4]; 5 h experiment): 0; Peak of activity (Counts per 0.2 h) (rats [4]; 12 h experiment): 223 Counts per 0.2 h; Time of Last Count Above 200 per 0.2 h (rats [4]; 12 h experiment): 6.4 h; Time of Peak (Counts per 0.2 h) (rats [4]; 12 h experiment): 0.6; Total Activity Counts (rats [4]; 12 h experiment): 6622; Total Activity Counts Above Baseline (rats [4]; 12 h experiment): 5686; AUC0-1 of d-amphetamine [5]: 1032 ng·h/mL; AUCinf of d-amphetamine [5]: 7291 ng·h/mL; Cmax of d-amphetamine ([5]; LC/MS/MS): 1962.9 ng/mL; AUCinf alt. calc. of d-amphetamine ([5]; in ng·h/mL): 1,267
